Experimental data taken from US7868188B2, “5-heteroaryl thiazoles and their use as PI3K inhibitors” (AstraZeneca AB, priority 2004, dated 2011).
Where a name gives a salt, the structure may show the parent alone.

Target: T1, p110α Type Ia human PI3K (Homo sapiens, UniProt P42336)
T1 construct: full length DNA of each of the p110α, p110β and p110δ Type Ia human PI3K p110 isoforms; 6-His; made in house; host or cells: baculovirus expression system (Sf9 is named only for PI3Kγ)
Assay: Test (a) In Vitro PI3K Enzyme Assay (AlphaScreen)
Format: biochemical
Settings: read-out: IC50 versus p110α PI3K
Source text: The assay used AlphaScreen technology (Gray et al., Analytical Biochemistry, 2003, 313: 234-245) to determine the ability of test compounds to inhibit phosphorylation by recombinant Type I PI3K enzymes of the lipid PI(4,5)P2.
DNA fragments encoding human PI3K catalytic and regulatory subunits were isolated from cDNA libraries using standard molecular biology and PCR cloning techniques. The selected DNA fragments were used to generate baculovirus expression vectors. In particular, full length DNA of each of the p110α, p110β and p110δ Type Ia human PI3K p110 isoforms (EMBL Accession Nos. HSU79143, S67334, Y10055 for p110α, p110β and p110δ respectively) were sub-cloned into a pDEST10 vector (Invitrogen Limited, Fountain Drive, Paisley, UK). The vector is a Gateway-adapted version of Fastbac1 containing a 6-His epitope tag. A truncated form of Type Ib human PI3K p110γ isoform corresponding to amino acid residues 144-1102 (EMBL Accession No. X8336A) and the full length human p85α regulatory subunit (EMBL Accession No. HSP13KIN) were also sub-cloned into pFastBac1 vector containing a 6-His epitope tag. The Type Ia p110 constructs were co-expressed with the p85α regulatory subunit. Following expression in the baculovirus system using standard baculovirus expression techniques, expressed proteins were purified using the His epitope tag using standard purification techniques.
DNA corresponding to amino acids 263 to 380 of human general receptor for phosphoinositides (Grp1) PH domain was isolated from a cDNA library using standard molecular biology and PCR cloning techniques. The resultant DNA fragment was sub-cloned into a pGEX 4T1 E. coli expression vector containing a GST epitope tag (Amersham Pharmacia Biotech, Rainham, Essex, UK) as described by Gray et al., Analytical Biochemistry, 2003, 313: 234-245). The GST-tagged Grp1 PH domain was expressed and purified using standard techniques.
Test compounds were prepared as […] stock solutions in DMSO and diluted into water as required to give a range of final assay concentrations. Aliquots (2 μl) of each compound dilution were placed into a well of a Greiner 384-well low volume (LV) white polystyrene plate (Greiner Bio-one, Brunel Way, Stonehouse, Gloucestershire, UK Catalogue No. 784075). […]
Biotinylated-DiC8-PI(3,4,5)P3 (50 nM; Cell Signals Inc., Catalogue No. 107), recombinant purified GST-Grp1 PH protein (2.5 nM) and AlphaScreen Anti-GST donor and acceptor beads (100 ng; Packard Bioscience Limited, Station Road, Pangbourne, Berkshire, UK, Catalogue No. 6760603M) were added and the assay plates were left for about 5 to 20 hours at room temperature in the dark. The resultant signals arising from laser light excitation at 680 nm were read using a Packard AlphaQuest instrument. […]

T1 sequence (P42336 whole entry, canonical isoform): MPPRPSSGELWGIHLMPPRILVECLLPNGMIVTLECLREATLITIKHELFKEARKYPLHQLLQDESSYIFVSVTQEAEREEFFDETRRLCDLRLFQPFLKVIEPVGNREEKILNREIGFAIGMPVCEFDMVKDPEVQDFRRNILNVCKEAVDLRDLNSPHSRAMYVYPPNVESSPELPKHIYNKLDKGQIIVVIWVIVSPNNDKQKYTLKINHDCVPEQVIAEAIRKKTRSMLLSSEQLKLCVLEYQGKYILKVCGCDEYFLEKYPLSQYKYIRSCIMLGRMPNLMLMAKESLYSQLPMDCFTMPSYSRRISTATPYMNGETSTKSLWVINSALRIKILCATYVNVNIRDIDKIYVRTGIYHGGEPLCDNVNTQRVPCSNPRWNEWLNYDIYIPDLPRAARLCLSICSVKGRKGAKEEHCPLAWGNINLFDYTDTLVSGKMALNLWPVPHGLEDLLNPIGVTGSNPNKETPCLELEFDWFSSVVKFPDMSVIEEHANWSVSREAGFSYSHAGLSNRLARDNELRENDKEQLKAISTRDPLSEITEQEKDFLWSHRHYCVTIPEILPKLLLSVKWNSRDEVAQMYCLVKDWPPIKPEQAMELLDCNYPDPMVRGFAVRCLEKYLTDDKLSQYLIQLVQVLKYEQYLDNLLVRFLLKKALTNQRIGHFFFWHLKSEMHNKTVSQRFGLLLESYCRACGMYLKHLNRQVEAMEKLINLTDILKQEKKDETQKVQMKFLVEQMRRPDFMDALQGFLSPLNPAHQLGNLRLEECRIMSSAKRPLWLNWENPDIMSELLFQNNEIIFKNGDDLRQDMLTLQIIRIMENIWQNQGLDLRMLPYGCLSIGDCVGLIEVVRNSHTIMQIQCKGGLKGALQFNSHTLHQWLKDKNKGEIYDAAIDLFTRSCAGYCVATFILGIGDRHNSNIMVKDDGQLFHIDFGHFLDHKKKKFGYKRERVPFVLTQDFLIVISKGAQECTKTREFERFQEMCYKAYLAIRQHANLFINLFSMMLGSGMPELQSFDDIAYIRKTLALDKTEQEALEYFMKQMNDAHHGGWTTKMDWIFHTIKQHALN
T1 sequence (P27986 whole entry partner, canonical isoform): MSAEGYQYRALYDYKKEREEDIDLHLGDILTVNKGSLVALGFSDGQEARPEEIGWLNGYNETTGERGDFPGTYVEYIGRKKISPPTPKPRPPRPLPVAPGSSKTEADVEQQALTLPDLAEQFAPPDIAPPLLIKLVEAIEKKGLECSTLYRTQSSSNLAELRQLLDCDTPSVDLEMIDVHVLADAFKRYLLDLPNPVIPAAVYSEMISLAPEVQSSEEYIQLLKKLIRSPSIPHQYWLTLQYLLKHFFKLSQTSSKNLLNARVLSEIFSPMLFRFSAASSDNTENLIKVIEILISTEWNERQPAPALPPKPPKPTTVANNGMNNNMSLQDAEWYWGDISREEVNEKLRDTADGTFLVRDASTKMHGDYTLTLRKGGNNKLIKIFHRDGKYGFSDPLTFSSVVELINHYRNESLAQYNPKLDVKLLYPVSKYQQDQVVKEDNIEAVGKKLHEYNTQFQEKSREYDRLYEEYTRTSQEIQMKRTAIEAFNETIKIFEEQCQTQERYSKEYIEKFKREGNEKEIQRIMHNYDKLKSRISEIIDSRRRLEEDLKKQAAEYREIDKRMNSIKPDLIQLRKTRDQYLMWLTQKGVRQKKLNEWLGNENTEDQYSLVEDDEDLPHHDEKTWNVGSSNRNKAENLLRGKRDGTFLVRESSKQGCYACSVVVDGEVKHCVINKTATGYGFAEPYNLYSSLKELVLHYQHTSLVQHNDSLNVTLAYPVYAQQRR

| IC50 [µM] | SMILES |
| --- | --- |
| ~0.03 | CC(=O)Nc1nc(C)c(-c2cnc(Cl)c(S(=O)(=O)Nc3ccccc3)c2)s1 [Compound No. 4 within Example 73, N-{5-[6-Chloro-5-(N-phenylsulfamoyl)pyridin-3-yl]-4-methyl-1,3-thiazol-2-yl]acetamide] |
| ~0.01 | CC(=O)Nc1nc(C)c(-c2cnc(Cl)c(NS(C)(=O)=O)c2)s1 [Example 28, N-[5-(6-Chloro-5-methylsulfonylaminopyridin-3-yl)-4-methyl-1,3-thiazol-2-yl]acetamide trifluoroacetate] |
| ~0.2 | CC(=O)Nc1nc(C)c(-c2cnc(Cl)c(NCc3ccc(F)cc3)c2)s1 [Compound No. 3 within Example 79, N-{5-[6-Chloro-5-(4-fluorobenzylamino)pyridin-3-yl]-4-methyl-1,3-thiazol-2-yl}acetamide] |
